# Structures can show the parent of a compound that is named as a salt.
# System: EmGFP-HaloTag
# Assay: Test Example 1: HeLa cells stably expressing EmGFP-HaloTag, Western blot GFP/actin (Testing Method A)
# Type: cell-based
# Conditions: 1 uM, 24 hours, 1 or less = degradation promoted
# Protocol: Test Example 1: Evaluation Method Using Cell Stably Expressing EmGFP-HaloTag (Testing Method A)
# HeLa cells stably expressing EmGFP-HaloTag were inoculated to Dulbecco's Modified Eagle Medium (DMEM) and cultured for 24 hours. Then, a test compound (specifically, compounds of Examples 1 to 7, 9 to 11, 13 to 15, 17 to 20, 24 to 27, 29, 32 to 33, 36 to 42, 44 to 46 and 56) was added thereto at the final concentration shown in Table 2, followed by incubation for 24 hours under conditions of 37° C./5% CO2. The cells were washed with PBS three times and treated with a cell lysis solution containing a proteolytic enzyme inhibitor to obtain a cell extract. The cell extract was subjected to SDS-PAGE. After the electrophoresis, GFP and actin were detected by Western blot. The ratio of the GFP/actin value of the drug-treated cells to the GFP/actin value of a control group in drug-untreated cells was regarded as an activity value. A value of 1 or less represents that degradation of EmGFP-HaloTag was promoted.
row,Structure (SMILES),Activity value (GFP/actin of drug-treated cells relative to drug-untreated control)
1,"Nc1nc2c(nc(-c3cn(CCOCCOCCOCCOCCOCCCCCCCl)nn3)n2Cc2ccc(F)cc2)c(=O)[nH]1 [Example 15, 2-Amino-8-(1-(21-chloro-3,6,9,12,15-pentaoxahenicos-1-yl)-1H-1,2,3-triazol-4-yl)-9-(4-fluorobenzyl)-1,9-dihydro-6H-purin-6-one]",0.9
2,"CC(=O)N[C@@H](CSc1nc2c(N)ncnc2n1Cc1ccc(F)cc1)C(=O)NCCOCCOCCOCCOCCOCCCCCCCl [Example 17, N^2-Acetyl-S-(6-amino-9-(4-fluorobenzyl)-9H-purin-8-yl)-N-(21-chloro-3,6,9,12,15-pentaoxahenicos-1-yl)-L-cysteinamide trifluoroacetate]",0.7
3,"CC(=O)N[C@@H](CSc1nc2cncnc2n1Cc1ccc(F)cc1)C(=O)NCCOCCOCCOCCOCCOCCCCCCCl [Example 18, N^2-Acetyl-N-(21-chloro-3,6,9,12,15-pentaoxahenicos-1-yl)-S-(9-(4-fluorobenzyl)-9H-purin-8-yl)-L-cysteinamide]",0.1
4,"CC(=O)N[C@@H](CSc1nc2c(=O)[nH]c(N)nc2n1Cc1ccccc1Cl)C(=O)NCCOCCOCCOCCOCCOCCCCCCCl [Example 24, N^2-acetyl-S-(2-amino-9-(2-chlorobenzyl)-6-oxo-6,9-dihydro-1H-purin-8-yl)-N-(21-chloro-3,6,9,12,15-pentaoxahenicos-1-yl)-L-cysteinamide]",0.5
5,"CC(=O)N[C@@H](CSc1nc2c(=O)[nH]c(N)nc2n1Cc1ccc(C)cc1)C(=O)NCCOCCOCCOCCOCCOCCCCCCCl [Example 25, N^2-acetyl-S-(2-amino-9-(4-methylbenzyl)-6-oxo-6,9-dihydro-1H-purin-8-yl)-N-(21-chloro-3,6,9,12,15-pentaoxahenicos-1-yl)-L-cysteinamide]",0.9
6,"CC(=O)N[C@@H](CSc1nc2c(=O)[nH]cnc2n1Cc1ccc(F)cc1)C(=O)NCCOCCOCCOCCOCCOCCCCCCCl [Example 26, N^2-Acetyl-N-(21-chloro-3,6,9,12,15-pentaoxahenicos-1-yl)-S-(9-(4-fluorobenzyl)-6-oxo-6,9-dihydro-1H-purin-8-yl)-L-cysteinamide]",0.5
7,"CC(=O)Nc1nc2c(nc(SC[C@H](NC(C)=O)C(=O)NCCOCCOCCOCCOCCOCCCCCCCl)n2Cc2ccc(F)cc2)c(=O)[nH]1 [Example 27, S-(2-Acetamido-9-(4-fluorobenzyl)-6-oxo-6,9-dihydro-1H-purin-8-yl)-N^2-acetyl-N-(21-chloro-3,6,9,12,15-pentaoxahenicos-1-yl)-L-cysteinamide]",0.7
8,"Nc1nc2c(nc(C(=O)NCCOCCOCCOCCOCCOCCCCCCCl)n2Cc2ccc(F)cc2)c(=O)[nH]1 [Example 33, 2-Amino-N-(21-chloro-3,6,9,12,15-pentaoxahenicos-1-yl)-9-(4-fluorobenzyl)-6-oxo-6,9-dihydro-1H-purine-8-carboxamide]",0.9
9,"CC(=O)N[C@@H](CSc1nc2c(=O)[nH]c(N)nc2n1Cc1cccc(Cl)c1)C(=O)NCCOCCOCCOCCOCCOCCCCCCCl [Example 37, N^2-acetyl-S-(2-amino-9-(3-chlorobenzyl)-6-oxo-6,9-dihydro-1H-purin-8-yl)-N-(21-chloro-3,6,9,12,15-pentaoxahenicos-1-yl)-L-cysteinamide]",0.7
10,"CC(=O)N[C@@H](CSc1nc2c(=O)[nH]c(N)nc2n1Cc1ccc(S(C)(=O)=O)cc1)C(=O)NCCOCCOCCOCCOCCOCCCCCCCl [Example 39, N^2-acetyl-S-(2-amino-9-(4-(methylsulfonyl)benzyl)-6-oxo-6,9-dihydro-1H-purin-8-yl)-N-(21-chloro-3,6,9,12,15-pentaoxahenicos-1-yl)-L-cysteinamide]",0.7
11,"CC(=O)N[C@@H](CSc1nc2c(=O)[nH]c(N)nc2n1-c1ccccc1)C(=O)NCCOCCOCCOCCOCCOCCCCCCCl [Example 40, N^2-acetyl-S-(2-amino-6-oxo-9-phenyl-6,9-dihydro-1H-purin-8-yl)-N-(21-chloro-3,6,9,12,15-pentaoxahenicos-1-yl)-L-cysteinamide]",0.7
12,"CC(=O)N[C@@H](CSc1nc2c(=O)[nH]c(N)nc2n1Cc1cccnc1)C(=O)NCCOCCOCCOCCOCCOCCCCCCCl [Example 41, N^2-acetyl-S-(2-amino-6-oxo-9-(pyridin-3-ylmethyl)-6,9-dihydro-1H-purin-8-yl)-N-(21-chloro-3,6,9,12,15-pentaoxahenicos-1-yl)-L-cysteinamide trifluoroacetic acid salt]",0.5
13,"CC(=O)N[C@@H](CSc1nc2c(=O)[nH]c(N)nc2n1Cc1cncs1)C(=O)NCCOCCOCCOCCOCCOCCCCCCCl [Example 42, N^2-acetyl-S-(2-amino-6-oxo-9-(1,3-thiazole-5-ylmethyl)-6,9-dihydro-1H-purin-8-yl)-N-(21-chloro-3,6,9,12,15-pentaoxahenicos-1-yl)-L-cysteinamide]",0.8
14,"CC(=O)N[C@@H](CSc1nc2c(=O)n3cc[nH]c3nc2n1Cc1ccc(F)cc1)C(=O)NCCOCCOCCOCCOCCOCCCCCCCl [Example 44, N^2-Acetyl-N-(21-chloro-3,6,9,12,15-pentaoxahenicos-1-yl)-S-(3-(4-fluorobenzyl)-9-oxo-5,9-dihydro-3H-imidazo[1,2-a]purin-2-yl)-L-cysteinamide]",0.9

# Same assay, conditions: 10 uM, 24 hours, 1 or less = degradation promoted
row,Structure (SMILES),Activity value (GFP/actin of drug-treated cells relative to drug-untreated control)
1,"CC(=O)N[C@@H](CSc1c(NCc2ccc(F)cc2)nc(N)[nH]c1=O)C(=O)NCCOCCOCCOCCOCCOCCCCCCCl [Example 19, N^2-Acetyl-S-(2-amino-4-((4-fluorobenzyl)amino)-6-oxo-1,6-dihydropyrimidin-5-yl)-N-(21-chloro-3,6,9,12,15-pentaoxahenicos-1-yl)-L-cysteinamide Trifluoroacetate]",0.5
2,"CC(=O)N[C@@H](CSc1nc2c(=O)[nH]c(N)nc2n1Cc1ccccc1)C(=O)NCCOCCOCCOCCOCCOCCCCCCCl [Example 20, N^2-Acetyl-S-(2-amino-9-benzyl-6-oxo-6,9-dihydro-1H-purin-8-yl)-N-(21-chloro-3,6,9,12,15-pentaoxahenicos-1-yl)-L-cysteinamide Trifluoroacetate]",0.2
3,"CC(=O)N[C@@H](CSc1nc2c(=O)[nH]c(N)nc2n1Cc1ccc(C#N)cc1)C(=O)NCCOCCOCCOCCOCCOCCCCCCCl [Example 36, N^2-acetyl-S-(2-amino-9-(4-cyanobenzyl)-6-oxo-6,9-dihydro-1H-purin-8-yl)-N-(21-chloro-3,6,9,12,15-pentaoxahenicos-1-yl)-L-cysteinamide]",0.9
4,"CC(=O)N[C@@H](CSc1nc2c(N)nc(N)nc2n1Cc1ccc(F)cc1)C(=O)NCCOCCOCCOCCOCCOCCCCCCCl [Example 45, N^2-Acetyl-N-(21-chloro-3,6,9,12,15-pentaoxahenicos-1-yl)-S-(2,6-diamino-9-(4-fluorobenzyl)-9H-purin-8-yl)-L-cysteinamide]",0.7

# Same assay, conditions: 100 uM, 24 hours, 1 or less = degradation promoted
row,Structure (SMILES),Activity value (GFP/actin of drug-treated cells relative to drug-untreated control)
1,"CC(=O)N[C@@H](CSc1nc2c(=O)[nH]c(N)nc2n1CC1CCOCC1)C(=O)NCCOCCOCCOCCOCCOCCCCCCCl [Example 29, N^2-acetyl-S-(2-amino-6-oxo-9-(tetrahydro-2H-pyran-4-ylmethyl)-6,9-dihydro-1H-purin-8-yl)-N-(21-chloro-3,6,9,12,15-pentaoxahenicos-1-yl)-L-cysteinamide]",0.5
2,"Nc1nc2c(nc(CNCCOCCOCCOCCOCCOCCCCCCCl)n2Cc2ccc(F)cc2)c(=O)[nH]1 [Example 32, 2-Amino-8-(23-chloro-5,8,11,14,17-pentaoxa-2-azatricos-1-yl)-9-(4-fluorobenzyl)-1,9-dihydro-6H-purin-6-one]",0.7
3,"COc1ccc(Cn2c(SC[C@H](NC(C)=O)C(=O)NCCOCCOCCOCCOCCOCCCCCCCl)nc3c(=O)[nH]c(N)nc32)cc1 [Example 38, N^2-acetyl-S-(2-amino-9-(4-methoxybenzyl)-6-oxo-6,9-dihydro-1H-purin-8-yl)-N-(21-chloro-3,6,9,12,15-pentaoxahenicos-1-yl)-L-cysteinamide]",0.8
4,"Nc1nc2c(nc(C(=O)N3CCCCC3C(=O)NCCOCCOCCOCCOCCOCCCCCCCl)n2Cc2ccc(F)cc2)c(=O)[nH]1 (stereo not shown) [Example 46, 1-((2-Amino-9-(4-fluorobenzyl)-6-oxo-6,9-dihydro-1H-purin-8-yl)carbonyl)-N-(21-chloro-3,6,9,12,15-pentaoxahenicos-1-yl)piperidine-2-carboxamide]",0.2
